Test results: patent US7745481B2, “Methods and compositions for the treatment and prevention of tumors, tumor-related disorders and cachexia” (Daiichi Sankyo Company, Limited, priority 1997, dated 2010)

Columns and labels:
[1] = tested on: human colon cancer cell lines; details: literature (Sheng 1997); COX-2 expressing line HCA-7; cited from earlier work
[2] = tested on: Human colon cancer KM12-HX cells; assay: Antitumor effect against human colon cancer KM12-HX cells (orthotopic transplant in nude mice); assay type: in vivo, mouse; details: 9 doses (days 3-7 and 10-13), tumor weight on day 14, Balb/c nude mice
Description: Human colon cancer KM12-HX cells were orthotopically transplanted into the cecum of nude mice according to the method of Fu et al. [X. Fu et al., Anticancer Res., 12 (1992)] using Balb/c nude mice (females, 7 weeks old) in groups of 10 each.
Specifically, an incision was made into the left lower abdominal region of each mouse under Abacin anesthesia, after which a thin section of tumor measuring 5 mm on a side was sutured to the cecum using absorbable surgical sutures to perform orthotopic transplant. The incision was sutured using absorbable surgical sutures and the mice were warmed and promptly awakened from anesthesia.
The test compound was suspended in sterilized distilled water containing 0.5% w/v carboxymethyl cellulose (CMC) and administered orally in a total of 9 doses consisting of one dose per day from days 3 to 7 after the tumor cell transplantation and from days 10 to 13 after the transplantation.
Antitumor activity was assessed according to the following equation to determine the tumor weight inhibitory rate (GI %) on day 14 after the transplantation. GI(%)=(1−Vt′/Vc′)×100 • Vt′: Mean tumor weight on day 14 in the group administered the test compound • Vc′: Mean tumor weight on day 14 in an untreated control group

[3] = tested on: mouse malignant melanoma B16-BL6 cells; assay: Inhibitory effect on lung metastasis of mouse malignant melanoma B16-BL6 cells; assay type: in vivo; details: for LMI (%) lung metastasis inhibitory rate: 1 mg/kg per day oral for five days, colonies counted on 10th day, C57BL/6 mice; for Inhibition of lung metastasis (in words): 1 mg/kg oral, lung metastasis accelerating conditions (LPS)
Procedure: Groups of mice, each group containing ten C57BL/6 mice (female, age: 8 weeks) were transplanted intravenously into the tail vein with 3×10^4 of mouse malignant melanoma B16-BL6 cells.
The mice were, when necessary, administered intravenously into the tail vein with a bacterial lipopolysaccharide (LPS) in an amount of 3 μg each within one hour before transplantation of the melanoma cells so as to accelerate lung metastasis of the melanoma [M. J. Anasagasti et al., J. Natl. Cancer Research, 89, 645-651 (1997).]
As test compounds, Compound No. 2-118, a compound of formula (IV), a compound of formula (V) and indomethacin were employed, and each was suspended in sterilized distilled water containing 0.5% w/v of carboxymethyl cellulose (CMC), and the suspensions were orally administered at a dose of 1 mg/kg per day for five days starting from the day of the melanoma cell transplantation.
Inhibitory activities on lung metastasis of the melanoma cells were evaluated in terms of the lung metastasis inhibitory rate (LMI %) by counting the number of metastatic colonies in the lung on the 10th day after intravenous transplantation of the mouse malignant melanoma B16-BL6 cells at the tail. LMI(%)=(1−Nt/Nc)×100 • Nt: Numbers of lung metastatic colonies on the 10th day in groups administered with the test compounds; and • Nc: Numbers of lung metastatic colonies on the 10th day in control groups which were not administered with the test compounds.

[4] = tested on: mouse sarcoma S-180 cells; assay: Antitumor effect against mouse sarcoma S-180 cells; assay type: in vivo; details: 1 mg/kg oral once per day for 5 days; tumor volume on day 7; Balb/c nude mice
Procedure: 1×10^6 mouse sarcoma S-180 cells were transplanted subcutaneously in Balb/c nude mice (females, 8 weeks old) in groups of 10 each.
The test compound, Compound No. 2-118, was suspended in sterilized distilled water containing 0.5% w/v carboxymethyl cellulose (CMC) and administered orally once per day for 5 days starting on the day the tumor cells were transplanted.
Antitumor activity was assessed according to the following equation to determine the tumor growth inhibitory rate (GI %) on day 7 after the transplantation. GI(%)=(1−Vt/Vc)×100 • Vt: Mean tumor volume on day 7 in a group administered test compound (*) • Vc: Mean tumor volume on day 7 in an untreated control group (*) • *: Tumor volume is defined as ½×[tumor long axis]×[tumor short axis]^2

[5] = tested on: mouse colon cancer Colon 26 cells; assay: Life-prolonging activity test in mice bearing Colon 26 cells; assay type: in vivo; details: Example 7, animals of Examples 3 and 4; present tense, no data
Procedure: Observation of the mice used in Example 1 above was continued. The life-prolonging index was determined, based on the number of days each mouse survived, and this value was then used as an indicator of the life-prolonging effects of the test compounds.
It should be noted that, in the case of the group of mice treated with a test compound, oral administration of the respective compound once daily was continued on day 20 after tumor cell transplantation and beyond as well. Life-prolonging index (%)=(St/Sc−1)×100 • St: Median value of survival time (days) of the group of mice treated with a test compound • Sc: Median value of survival time (days) of the control group which were […].
The experiment reported in Example 5 was repeated with the animals used in Example 2. In the case of the group of mice treated with a test compound, oral administration of the respective compound once daily was continued on day 23 after tumor cell transplantation and beyond as well.
The experiment reported in Example 5 is repeated with the animals used in Examples 3 and 4.

[6] = tested on: mouse colon cancer Colon 26 cells; assay: Test of anticachexia effects in mice bearing mouse colon cancer Colon 26 cells; assay type: in vivo
Description: The test animals were CDF1 mice (females, 8 weeks old). They were employed in groups of 10 for each test. 1×10^6 mouse colon cancer Colon 26 cells were transplanted subcutaneously into each animal.
The test compounds were Compounds No. 1-94 and 2-78 as shown above in Tables 1 and 2, respectively, and having the following formulae: […]
Each test compound was suspended in sterilized distilled water containing 0.5% w/v carboxymethyl cellulose (CMC) and administered orally once per day starting on the day of the tumor cell transplantation.
Each test animal was weighed immediately after tumor cell transplantation, and the weight (A g) was recorded. Each animal was then weighed on day 19 after tumor cell transplantation, and the weight (B g) was recorded. The weight gain on day 19 after tumor cell transplantation was calculated as B−A=Δgt for the test animals. The experiment was repeated with two control groups: the first control group (control group 1) was transplanted with the tumor cells but were not treated with any test compound, and the weight gain is reported as Δgc1; the second control group (control group 2) were not transplanted with the tumor cells and were not treated with any test compound, and the weight gain is reported as Δgc2. The body weight recovery rate was determined according to the following formula based on the weight gain on day 19 after tumor cell transplantation, and this value was used as an indicator of the anticachexia effect. Body weight recovery rate (%)=(Δgt−Δgc1)/(Δgc2−Δgc1)×100
(§1) The procedure described in Example 1 was repeated, but using the compound of formula (III) as the test compound, and comparing the weight gain (Δgt) of the test group of animals to which the compound of formula (III) had been administered with a control group (Δgc) into which the tumor cells had been transplanted but to which no anti-tumor compound had been administered. The test animals were female CDF1 mice, 16 weeks old. Also, the weight gain was measured 22 days after tumor transplantation. The average body weight of each group of animals immediately after tumor transplantation was 25 to 26 g.
as §1, with “Example 2” for “Example 1”, “formula (IV)” for “formula (III)”, “mice, 7” for “mice, 16”, “measured 15” for “measured 22”, “was 20” for “was 25”, “to 21” for “to 26”
Test compounds [the compounds of formula (V), (VI), (VII), (VIII), (IX), (X), (XI), (XII), (XIII) and (XIV)] are administered in the same manner as described in Example 2.

[7] = tested on: mouse colon cancer Colon 26 cells; assay: as above; assay type: in vivo; details: 15 days after tumor transplantation, female CDF1 mice 7 weeks old, control −3.4
[8] = tested on: experimental colonic polyposis; details: literature (Oshima 1996; Reddy 1996); cited from earlier work
[9] = LPS 3 μg i.v. before transplantation

For CS(=O)(=O)c1ccc(-n2nc(C(F)(F)F)cc2-c2ccc(F)cc2)cc1 [SC-58125], the “Growth inhibitory effects against human colon cancer cell lines (in words)” value [1] is listed as “exhibits growth inhibitory effects against certain types of human colon cancer cell lines”.

In the case of Cc1cc(-c2ccc(C)c(C)c2)n(-c2ccc(S(N)(=O)=O)cc2)c1 [Compound 2-118, 2-(3,4-dimethylphenyl)-4-methyl-1-(4-sulfamoylphenyl)pyrrole], the “GI(%) tumor weight inhibitory rate” value ([2]; 0.3 mg/kg oral) is reported as 12%, the “GI(%) tumor weight inhibitory rate” value ([2]; 1 mg/kg oral) is reported as 35% and the “GI(%) tumor weight inhibitory rate” value ([2]; 3 mg/kg oral) is reported as 45%. The “GI(%) tumor weight inhibitory rate” value ([2]; 10 mg/kg oral) was 59%, the “LMI (%) lung metastasis inhibitory rate” value [3, 9] was 34% and the “LMI (%) lung metastasis inhibitory rate” value ([3]; no LPS administration) was 64%. For the same compound, the “GI (%) tumor growth inhibitory rate” value [4] was 54%.

For CS(=O)(=O)Nc1cc2c(cc1Sc1ccc(F)cc1F)C(=O)CC2 [Compound (V), N-[6-(2,4-difluorophenylthio)-1-oxoindan-5-yl]methanesulfonamide], the “Inhibition of lung metastasis (in words)” value [3] was “had no such inhibitory activity”, the “LMI (%) lung metastasis inhibitory rate” value [3, 9] was 1% and the “Life-prolongation (in words)” value [5] was “exhibit pronounced life-prolongation”. The “Inhibition of mouse tumor cachexia and recovery of body weight loss (in words)” value ([6]; Example 4, written in present tense, no data) was “inhibit mouse tumor cachexia and recover loss of average of body weight”.

For Cc1ccc(-c2cc(C(F)(F)F)nn2-c2ccc(S(N)(=O)=O)cc2)cc1 [Compound (IV), 4-(5-p-tolyl-3-trifluoromethyl-1H-pyrazol-1-yl)benzenesulfonamide], the “Inhibition of lung metastasis (in words)” value [3] was “had no such inhibitory activity”, the “LMI (%) lung metastasis inhibitory rate” value [3, 9] was 9% and the “Average Weight Gain (Δg)” value ([7]; 1 mg/kg oral once per day) was -1.2 g. For the same compound, the “Average Weight Gain (Δg)” value ([7]; 3 mg/kg oral once per day) was -1.3 g, the “Average Weight Gain (Δg)” value ([7]; 10 mg/kg oral once per day) was -0.6 g and the “Life-prolongation (in words)” value [5] was “exhibit pronounced life-prolongation”. The “Inhibition of mouse tumor cachexia and weight loss (in words)” value ([6]; Examples 1-3, 1-10 mg/kg oral) was “inhibited mouse tumor cachexia and reduced weight loss”.

For CS(=O)(=O)c1ccc(C2=C(c3ccc(F)c(F)c3)C(=O)OC2)cc1 [MF-tricyclic], the “Inhibition of occurrence of experimental colonic polyposis (in words)” value [8] is given as “inhibit the occurrence of experimental colonic polyposis”.
